ChEMBL document CHEMBL4680064, “Natural product inspired optimization of a selective TRPV6 calcium channel inhibitor” (RSC Med Chem, 2020)

Legend:
[1] = target: T1, Muscarinic acetylcholine receptor M2 (Homo sapiens, UniProt P08172); assay: Inhibition of human muscarinic M2 receptor at 10 uM
T1 sequence (P08172 whole entry): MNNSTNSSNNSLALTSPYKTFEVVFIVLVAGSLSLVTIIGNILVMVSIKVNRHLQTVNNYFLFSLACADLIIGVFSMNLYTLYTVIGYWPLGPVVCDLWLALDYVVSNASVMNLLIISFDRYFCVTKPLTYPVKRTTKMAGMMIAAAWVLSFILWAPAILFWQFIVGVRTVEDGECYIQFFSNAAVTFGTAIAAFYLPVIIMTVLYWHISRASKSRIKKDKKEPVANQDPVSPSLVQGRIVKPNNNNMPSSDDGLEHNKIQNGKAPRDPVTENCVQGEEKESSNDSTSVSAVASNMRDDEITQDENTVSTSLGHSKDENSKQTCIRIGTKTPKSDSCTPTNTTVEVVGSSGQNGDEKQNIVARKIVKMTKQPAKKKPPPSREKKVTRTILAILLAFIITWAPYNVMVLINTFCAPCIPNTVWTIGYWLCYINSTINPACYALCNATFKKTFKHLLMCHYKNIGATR

D(1A) dopamine receptor = D(1A) dopamine receptor (Homo sapiens, UniProt P21728); assay: Inhibition of human dopamine D1 receptor at 10 uM
Chain of D(1A) dopamine receptor (P21728 whole entry): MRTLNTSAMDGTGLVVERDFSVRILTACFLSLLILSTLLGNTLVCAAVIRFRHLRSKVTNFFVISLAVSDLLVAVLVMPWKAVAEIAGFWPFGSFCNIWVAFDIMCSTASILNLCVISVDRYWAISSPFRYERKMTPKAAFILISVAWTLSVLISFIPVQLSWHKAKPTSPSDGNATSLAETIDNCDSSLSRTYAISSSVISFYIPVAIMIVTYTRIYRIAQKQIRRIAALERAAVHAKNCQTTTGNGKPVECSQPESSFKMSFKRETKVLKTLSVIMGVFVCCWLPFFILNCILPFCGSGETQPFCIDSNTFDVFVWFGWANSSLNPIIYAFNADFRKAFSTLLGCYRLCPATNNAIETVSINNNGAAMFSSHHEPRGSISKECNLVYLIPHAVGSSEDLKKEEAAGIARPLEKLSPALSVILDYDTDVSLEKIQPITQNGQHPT

SMILES: O=c1ccc(CN2CCN([C@H]3CC[C@@](O)(c4cccc(C(F)(F)F)c4)CC3)CC2)c[nH]1
- inhibition (INH) [1]: Not Active
- inhibition (INH) (D(1A) dopamine receptor): Not Active
